Test: recombinant barcode read abundance after kanamycin selection (control-corrected) (log10(CPM+1)); higher = more efficient recombination; sequences stand for … in AGTGCAGAGAAAATCGGCCAGTTTTCTCTGCCTGCAGTCCGCATGCCGT…AGATTTATGCAGCGGACTGCCTTTCTCCCAAAGTGATAAACCGGACAGTATCATGGACCGGTTTTCCCGGTAATCCGTATTTGCAAGGTTGGTTTCACT; site = the 11-nt target
How it was run: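 A promoter, a target, a barcode and the first 104 bridge RNA bases under J23119 made up each oligo. Oligos were Gibson-cloned into a vector bearing the other 73 bp and a T7-inducible recombinase, then co-electroporated into E. coli with a donor plasmid and plated in duplicate on chloramphenicol/ampicillin LB agar (control) or chloramphenicol/ampicillin/kanamycin with 0.1 mM IPTG. Recombination efficiency is the averaged, control-corrected counts per million of recombinant-junction barcodes. Reported values are log10(CPM+1).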
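Further: IS621 recombinase and bridge RNA in Escherichia coli cells.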

| Sequence | recombinant barcode read abundance (log10) |
| --- | --- |
| TGTGCTACTTGGGTTCTAACCTGTTGCAC (site GACCTATCTAG) | 0.327 |
| TGTGCTACTTGGGTTCTAACCTGTTGCAC (site TGTGCTACTGT) | 0.0867 |
| TGTGCTCCTTGGGTTCTAACCTGTTGCAG (site TGTGCACCTGT) | 0.294 |
| TGTGCTCCTTGGGTTCTAACCTGTTGCAG (site TGTGCTCCTCT) | 0.113 |
| TGTGTCTCTTGGGTTCTAACCTGTTGCGT (site TCTGTCTCTAG) | 0.363 |
| TGTGTCTCTTGGGTTCTAACCTGTTGCGT (site TGTGTCTCTAC) | 2.63 |
| TGTTGAGCTTGGGTTCTAACCTGTTGCCG (site TGTAGAGCTCG) | 0.09 |
| TGTTGAGCTTGGGTTCTAACCTGTTGCCG (site TGTCGAGCTCG) | 0.192 |
| TGTTGAGCTTGGGTTCTAACCTGTTGCCG (site TGTGGAGCTCG) | 0.258 |
| TGTTGAGCTTGGGTTCTAACCTGTTGCCG (site TGTTGAGCTCG) | 0.554 |
| TGTTGTTCTTGGGTTCTAACCTGTTGCCT (site GGTTGTTCTAG) | 0.0142 |
| TGTTGTTCTTGGGTTCTAACCTGTTGCCT (site TGTTGTTCTAG) | 0.0851 |
| TGTTTAACTTGGGTTCTAACCTGTTGCCT (site TGGTTACCTAG) | 0.126 |
| TGTTTAACTTGGGTTCTAACCTGTTGCCT (site TGTTTAACTAG) | 0.0368 |
| TTAAAACCTTGGGTTCTAACCTGTTGCCT (site ATAAAACCTAG) | 0.0421 |
| TTAAAACCTTGGGTTCTAACCTGTTGCCT (site CTAAAACCTAG) | 0.0966 |
| TTAAAACCTTGGGTTCTAACCTGTTGCCT (site GTAAAACCTAG) | 0.06 |
| TTAAAACCTTGGGTTCTAACCTGTTGCCT (site TTAAAACCTAG) | 0.751 |
| TTAACTACTTGGGTTCTAACCTGTTGCTT (site TTAACTACTAA) | 0.0821 |
| TTAACTACTTGGGTTCTAACCTGTTGCTT (site TTAACTACTCA) | 0.233 |
| TTAACTACTTGGGTTCTAACCTGTTGCTT (site TTAACTACTGA) | 0.294 |
| TTAACTACTTGGGTTCTAACCTGTTGCTT (site TTAACTACTTA) | 0.0225 |

| Sequence | recombinant barcode read abundance (log10) |
| --- | --- |
| TTAAGCCCTTGGGTTCTAACCTGTTGCCT (site TTAAGACCTAG) | 0.288 |
| TTAAGCCCTTGGGTTCTAACCTGTTGCCT (site TTAAGCCCTAG) | 1.41 |
| TTAAGCTCTTGGGTTCTAACCTGTTGCCT (site ATAAGCTCTAG) | 0.125 |
| TTAAGCTCTTGGGTTCTAACCTGTTGCCT (site CTAAGCTCTAG) | 0.197 |
| TTAAGCTCTTGGGTTCTAACCTGTTGCCT (site GTAAGCTCTAG) | 0 |
| TTAAGCTCTTGGGTTCTAACCTGTTGCCT (site TTAAGCTCTAG) | 1.43 |
| TTAAGTCCTTGGGTTCTAACCTGTTGCAT (site TTAAGTCCTAT) | 0.498 |
| TTAAGTCCTTGGGTTCTAACCTGTTGCAT (site TTAGGTCCTAA) | 0.0454 |
| TTACCCACTTGGGTTCTAACCTGTTGCCT (site TTACCAACTAG) | 0.0275 |
| TTACCCACTTGGGTTCTAACCTGTTGCCT (site TTACCCACTAG) | 3.27 |
| TTACCCACTTGGGTTCTAACCTGTTGCCT (site TTACCGACTAG) | 0.0929 |
| TTACCCACTTGGGTTCTAACCTGTTGCCT (site TTACCTACTAG) | 0.151 |
| TTACGAGCTTGGGTTCTAACCTGTTGCGG (site TTACGAGCTCC) | 1.81 |
| TTACGAGCTTGGGTTCTAACCTGTTGCGG (site TTACGCGCTCC) | 0.176 |
| TTACGAGCTTGGGTTCTAACCTGTTGCGG (site TTACGGGCTCC) | 0.608 |
| TTACGAGCTTGGGTTCTAACCTGTTGCGG (site TTACGTGCTCC) | 0.14 |
| TTACGTACTTGGGTTCTAACCTGTTGCCT (site ATACGTACTAG) | 0.131 |
| TTACGTACTTGGGTTCTAACCTGTTGCCT (site CTACGTACTAG) | 0.193 |
| TTACGTACTTGGGTTCTAACCTGTTGCCT (site GTACGTACTAG) | 0.19 |
| TTACGTACTTGGGTTCTAACCTGTTGCCT (site TTACGTACTAG) | 1.45 |
| TTACGTGCTTGGGTTCTAACCTGTTGCGG (site TTACGAGCTCC) | 0.271 |
| TTACGTGCTTGGGTTCTAACCTGTTGCGG (site TTACGCGCTCC) | 0.141 |

| Sequence | recombinant barcode read abundance (log10) |
| --- | --- |
| TTACGTGCTTGGGTTCTAACCTGTTGCGG (site TTACGGGCTCC) | 0.67 |
| TTACGTGCTTGGGTTCTAACCTGTTGCGG (site TTACGTGCTCC) | 2.4 |
| TTAGAGCCTTGGGTTCTAACCTGTTGCCT (site TTAGAGACTAG) | 0.0939 |
| TTAGAGCCTTGGGTTCTAACCTGTTGCCT (site TTAGAGCCTAG) | 2 |
| TTAGAGCCTTGGGTTCTAACCTGTTGCCT (site TTAGAGGCTAG) | 0.173 |
| TTAGAGCCTTGGGTTCTAACCTGTTGCCT (site TTAGAGTCTAG) | 0.644 |
| TTAGAGTCTTGGGTTCTAACCTGTTGCCT (site TTAGAGACTAG) | 0.103 |
| TTAGAGTCTTGGGTTCTAACCTGTTGCCT (site TTAGAGCCTAG) | 0.925 |
| TTAGAGTCTTGGGTTCTAACCTGTTGCCT (site TTAGAGGCTAG) | 0.126 |
| TTAGAGTCTTGGGTTCTAACCTGTTGCCT (site TTAGAGTCTAG) | 2.08 |
| TTAGCCTCTTGGGTTCTAACCTGTTGCCT (site TTAGCATCTAG) | 0.168 |
| TTAGCCTCTTGGGTTCTAACCTGTTGCCT (site TTAGCCTCTAG) | 2.66 |
| TTAGCCTCTTGGGTTCTAACCTGTTGCCT (site TTAGCGTCTAG) | 0.137 |
| TTAGCCTCTTGGGTTCTAACCTGTTGCCT (site TTAGCTTCTAG) | 0.00901 |
| TTAGCGTCTTGGGTTCTAACCTGTTGCCT (site TTAGCATCTAG) | 1.47 |
| TTAGCGTCTTGGGTTCTAACCTGTTGCCT (site TTAGCCTCTAG) | 0.0674 |
| TTAGCGTCTTGGGTTCTAACCTGTTGCCT (site TTAGCGTCTAG) | 1.73 |
| TTAGCGTCTTGGGTTCTAACCTGTTGCCT (site TTAGCTTCTAG) | 0.129 |
| TTATACACTTGGGTTCTAACCTGTTGCTC (site GATAGGGCTAG) | 0.0179 |
| TTATACACTTGGGTTCTAACCTGTTGCTC (site TTATACACTGA) | 0.919 |
| TTATGATCTTGGGTTCTAACCTGTTGCCT (site TCATGAACTAG) | 0.0371 |
| TTATGATCTTGGGTTCTAACCTGTTGCCT (site TTATGATCTAG) | 0.193 |

| Sequence | recombinant barcode read abundance (log10) |
| --- | --- |
| TTATGGGCTTGGGTTCTAACCTGTTGCCG (site TCCTGGGCTCG) | 0.114 |
| TTATGGGCTTGGGTTCTAACCTGTTGCCG (site TTATGGGCTCG) | 0.88 |
| TTCAAGACTTGGGTTCTAACCTGTTGCCT (site TTCAAGACTAG) | 0.681 |
| TTCAAGACTTGGGTTCTAACCTGTTGCCT (site TTCAAGCCTAG) | 0.0955 |
| TTCAAGACTTGGGTTCTAACCTGTTGCCT (site TTCAAGGCTAG) | 0 |
| TTCAAGACTTGGGTTCTAACCTGTTGCCT (site TTCAAGTCTAG) | 0.241 |
| TTCAAGCCTTGGGTTCTAACCTGTTGCGG (site TTCAAGCCTAC) | 0.222 |
| TTCAAGCCTTGGGTTCTAACCTGTTGCGG (site TTCAAGCCTCC) | 1.15 |
| TTCAAGGCTTGGGTTCTAACCTGTTGCCT (site TTCAAGACTAG) | 0.0627 |
| TTCAAGGCTTGGGTTCTAACCTGTTGCCT (site TTCAAGCCTAG) | 0.118 |
| TTCAAGGCTTGGGTTCTAACCTGTTGCCT (site TTCAAGGCTAG) | 0.17 |
| TTCAAGGCTTGGGTTCTAACCTGTTGCCT (site TTCAAGTCTAG) | 0.461 |
| TTCAAGTCTTGGGTTCTAACCTGTTGCGT (site TTCAACTCTAC) | 0.0281 |
| TTCAAGTCTTGGGTTCTAACCTGTTGCGT (site TTCAAGTCTAC) | 1.33 |
| TTCAATTCTTGGGTTCTAACCTGTTGCTT (site TATAATTCTAA) | 0.00963 |
| TTCAATTCTTGGGTTCTAACCTGTTGCTT (site TTCAATTCTAA) | 0.0521 |
| TTCCCTACTTGGGTTCTAACCTGTTGCCT (site CTCCCAACTAG) | 0.102 |
| TTCCCTACTTGGGTTCTAACCTGTTGCCT (site TTCCCTACTAG) | 0.452 |
| TTCCGAGCTTGGGTTCTAACCTGTTGCAG (site CCTACGCCTTG) | 0.216 |
| TTCCGAGCTTGGGTTCTAACCTGTTGCAG (site TTCCGAGCTCT) | 0.873 |

— the supplement of paper PMC11208160
